{"source": "ChEMBL document CHEMBL5154923", "about": "(J Med Chem, 2022)", "key": {"[1]": {"biological_target": "T1, Serine/threonine-protein kinase 17A (Homo sapiens, UniProt Q9UEE5)", "T1 sequence (Q9UEE5 whole entry)": "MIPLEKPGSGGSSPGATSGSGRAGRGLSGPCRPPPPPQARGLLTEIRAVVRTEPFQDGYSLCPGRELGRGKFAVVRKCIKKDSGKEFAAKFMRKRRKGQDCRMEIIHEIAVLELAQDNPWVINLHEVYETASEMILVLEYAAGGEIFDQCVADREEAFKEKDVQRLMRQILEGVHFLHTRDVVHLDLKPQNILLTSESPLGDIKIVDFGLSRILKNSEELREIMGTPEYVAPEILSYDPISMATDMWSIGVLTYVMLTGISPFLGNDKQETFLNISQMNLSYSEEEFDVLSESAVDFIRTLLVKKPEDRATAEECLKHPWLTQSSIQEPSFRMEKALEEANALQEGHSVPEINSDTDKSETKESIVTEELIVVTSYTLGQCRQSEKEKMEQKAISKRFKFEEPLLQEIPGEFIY", "test": "Inhibition of human N-terminal His-tagged/ TEV cleavage fused DRAK1 (39 to 369 residues) transfected in HEK293T cells using NanoBRET NanoGlo as substrate incubated for 2 hrs by NanoBRET assay", "assay_type": "cell-based"}, "[2]": {"biological_target": "Casein kinase II subunit alpha (Homo sapiens, UniProt P68400)", "sequence (P68400 whole entry, looked up, the tested form may be a part)": "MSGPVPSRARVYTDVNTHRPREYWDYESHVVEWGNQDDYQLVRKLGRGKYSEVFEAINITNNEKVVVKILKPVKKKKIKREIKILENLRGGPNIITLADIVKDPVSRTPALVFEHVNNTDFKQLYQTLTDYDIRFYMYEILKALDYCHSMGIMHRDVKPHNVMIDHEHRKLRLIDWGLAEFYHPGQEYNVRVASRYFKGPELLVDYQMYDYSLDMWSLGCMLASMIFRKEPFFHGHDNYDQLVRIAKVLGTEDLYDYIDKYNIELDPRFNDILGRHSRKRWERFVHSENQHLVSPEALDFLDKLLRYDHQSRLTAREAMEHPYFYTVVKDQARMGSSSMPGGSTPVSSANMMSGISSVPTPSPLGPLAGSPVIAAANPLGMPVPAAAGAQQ", "test": "Binding affinity to wild type full length human CK2alpha1 (1 to 391 residues) expressed in mammalian expression system assessed as change in melting temperature at 10 uM by SYPRO orange dye based DSF assay"}, "[3]": {"biological_target": "T2, Serine/threonine-protein kinase 17A (Homo sapiens) (UniProt Q9UEE5)", "T2 sequence (whole entry)": "T1 sequence (Q9UEE5 whole entry)", "test": "Binding affinity to human N-terminal His-tagged/ TEV cleavage fused DRAK1 (39 to 369 residues) expressed in Escherichia coli assessed as change in melting temperature at 10 uM by SYPRO orange dye based DSF assay"}, "[4]": {"test": "Binding affinity to wild type full length human CK2alpha2 (1 to 350 residues) expressed in mammalian expression system assessed as change in melting temperature by SYPRO orange dye based DSF assay"}, "[5]": {"biological_target": "T2, Serine/threonine-protein kinase 17A (Homo sapiens)", "test": "Inhibition of human N-terminal His-tagged/ TEV cleavage fused DRAK1 (39 to 369 residues) expressed in Escherichia coli assessed as change in enthalpy by isothermal titration calorimetry"}, "HEK-293T [6]": {"tested_on": "HEK-293T", "test": "Cytotoxicity against human HEK293T cells at 1 uM incubated for 18 hrs", "assay_type": "toxicity, cell-based"}, "[7]": {"test": "Cytotoxicity against human MRC9 cells at 1 uM incubated for 36 hrs", "assay_type": "toxicity, cell-based", "conditions": "mrc9, 36 h"}, "HEK-293T [8]": {"tested_on": "HEK-293T", "test": "Cytotoxicity against human HEK293T cells assessed as increase in total apoptotic cells at 10 uM incubated for 18 hrs by Annexin V staining based method", "assay_type": "toxicity, cell-based"}, "[9]": {"test": "Induction of morphological changes in human MRC9 cells assessed as microtubule damage at 1 to 10 uM incubated for 18 hrs by confocal fluorescence microscopic analysis", "assay_type": "toxicity, cell-based", "conditions": "mrc9, 18 h, dose 1-10 µM"}, "[10]": {"biological_target": "T1, Serine/threonine-protein kinase 17A", "test": "Binding affinity to human N-terminal His-tagged/ TEV cleavage fused DRAK1 (39 to 369 residues) expressed in Escherichia coli by isothermal titration calorimetry"}, "[11]": {"biological_target": "T2, Serine/threonine-protein kinase 17A (Homo sapiens)", "test": "Inhibition of human N-terminal His-tagged/ TEV cleavage fused DRAK1 (39 to 369 residues) expressed in Escherichia coli assessed as change in entropy by isothermal titration calorimetry"}, "[12]": {"test": "Cytotoxicity against human MRC9 cells assessed as increase in total apoptotic cells at 10 uM incubated for 36 hrs by Annexin V staining based method", "assay_type": "toxicity, cell-based", "conditions": "mrc9, 36 h"}, "U2OS [13]": {"tested_on": "U2OS", "test": "Cytotoxicity against human U2OS cells assessed as increase in total apoptotic cells at 10 uM incubated for 36 hrs by Annexin V staining based method", "assay_type": "functional, cell-based"}, "[14]": {"test": "Cytotoxicity against human MRC9 cells assessed as increase in total apoptotic cells incubated for 36 hrs by Annexin V staining based method", "assay_type": "toxicity, cell-based"}, "[15]": {"biological_target": "T1, Serine/threonine-protein kinase 17A", "test": "Inhibition of human N-terminal His-tagged/ TEV cleavage fused DRAK1 (39 to 369 residues) expressed in Escherichia coli using KKLNRTLSFAEPG peptide as substrate in presence of [gamma-33P]ATP by radiometric based scintillation proximity assay"}, "[16]": {"test": "Induction of morphological changes in human MRC9 cells assessed as mitochondrial damage at 1 to 10 uM incubated for 18 hrs by confocal fluorescence microscopic analysis", "assay_type": "toxicity, cell-based", "conditions": "mrc9, 18 h, dose 1-10 µM"}, "HEK-293T [17]": {"tested_on": "HEK-293T", "test": "Cytotoxicity against human HEK293T cells assessed as increase in total apoptotic cells at 10 uM incubated for 36 hrs by Annexin V staining based method", "assay_type": "toxicity, cell-based"}, "[18]": {"biological_target": "T2, Serine/threonine-protein kinase 17A (Homo sapiens)", "test": "Inhibition of human N-terminal His-tagged/ TEV cleavage fused DRAK1 (39 to 369 residues) expressed in Escherichia coli assessed as gibbs free energy change by isothermal titration calorimetry"}, "T98G [19]": {"tested_on": "T98G", "test": "Antiproliferative activity against human T98G cells assessed as reduction in cell viability measured after 1 to 7 days by resazurin dye based fluorimetric analysis", "assay_type": "functional"}, "LN-229": {"tested_on": "LN-229", "test": "Antiproliferative activity against human LN-229 cells assessed as reduction in cell viability after 1 to 7 days by resazurin dye based fluorimetric analysis", "assay_type": "functional"}, "LN-18": {"tested_on": "LN-18", "test": "Antiproliferative activity against human LN-18 cells assessed as reduction in cell viability after 1 to 7 days by resazurin dye based fluorimetric analysis", "assay_type": "functional"}, "HEK-293T [20]": {"tested_on": "HEK-293T", "test": "Cytotoxicity against human HEK293T cells at 1 uM incubated for 36 hrs", "assay_type": "toxicity, cell-based"}, "HEK-293T [21]": {"tested_on": "HEK-293T", "test": "Induction of morphological changes in human HEK293T cells assessed as mitochondrial damage at 1 to 10 uM incubated for 18 hrs by confocal fluorescence microscopic analysis", "assay_type": "toxicity, cell-based", "conditions": "dose 1-10 µM"}, "[22]": {"test": "Cytotoxicity against human HEK293T cells assessed as increase in total apoptotic cells incubated for 36 hrs by Annexin V staining based method", "assay_type": "toxicity, cell-based, HEK-293T"}, "T98G [23]": {"tested_on": "T98G", "test": "Induction of morphological changes in human T98G cells assessed as change in cell shape at 12.5 uM incubated for 5 days by microscopy analysis", "assay_type": "functional, cell-based", "conditions": "time 5.0 day"}, "HEK-293T [24]": {"tested_on": "HEK-293T", "test": "Induction of morphological changes in human HEK293T cells assessed as microtubule damage at 1 to 10 uM incubated for 18 hrs by confocal fluorescence microscopic analysis", "assay_type": "toxicity, cell-based", "conditions": "dose 1-10 µM"}, "D-247MG": {"tested_on": "D-247MG", "test": "Antiproliferative activity against human D-247MG cells assessed as reduction in cell viability after 1 to 7 days by resazurin dye based fluorimetric analysis", "assay_type": "functional"}, "U2OS [25]": {"tested_on": "U2OS", "test": "Cytotoxicity against human U2OS cells assessed as increase in total apoptotic cells incubated for 36 hrs by Annexin V staining based method", "assay_type": "functional, cell-based"}}, "note": "Active and inactive are the calls of the source. The rule behind the calls is not given here."}
{"smiles": "O=C(c1ccc2cc1OCCOCCNc1ccn3ncc-2c3n1)N1CCOCC1", "values": [{"measurement": "IC50", "setting": "[1]", "result": "> 45000", "unit": "nM"}, {"measurement": "ΔTm", "setting": "[2]", "result": 1.1, "unit": "°C"}, {"measurement": "ΔTm", "setting": "[3]", "result": 3, "unit": "°C"}, {"measurement": "ΔTm", "setting": "[4]", "result": 2.5, "unit": "°C"}]}
{"smiles": "C[C@H](NC(=O)c1ccc2cc1OCCOCCNc1ccn3ncc-2c3n1)c1ccncc1", "values": [{"measurement": "deltaH", "setting": "[5]", "result": -6.78, "unit": "kcal/mol"}, {"measurement": "Activity", "setting": "HEK-293T [6]", "result": "Non-Toxic"}, {"measurement": "Activity", "setting": "[7]", "result": "Non-Toxic"}, {"measurement": "Activity", "setting": "HEK-293T [8]", "result": "Toxic"}, {"measurement": "Activity", "setting": "[9]", "result": "Non-Toxic"}, {"measurement": "Kd", "setting": "[10]", "result": 9, "unit": "nM"}, {"measurement": "deltaS", "setting": "[11]", "result": 11.6, "unit": "cal/mol.K"}, {"measurement": "Activity", "setting": "[12]", "result": "Toxic"}, {"measurement": "Activity", "setting": "U2OS [13]", "result": "Active"}, {"measurement": "EC50 at 36 h", "setting": "[14]", "result": "> 10", "unit": "µM"}, {"measurement": "IC50", "setting": "[1]", "result": 70, "unit": "nM"}, {"measurement": "ΔTm", "setting": "[2]", "result": 1.2, "unit": "°C"}, {"measurement": "IC50", "setting": "[15]", "result": 15, "unit": "nM"}, {"measurement": "Activity", "setting": "[16]", "result": "Non-Toxic"}, {"measurement": "ΔTm", "setting": "[3]", "result": 12.3, "unit": "°C"}, {"measurement": "Activity", "setting": "HEK-293T [17]", "result": "Toxic"}, {"measurement": "deltaG", "setting": "[18]", "result": -10.1, "unit": "kcal/mol"}, {"measurement": "EC50", "setting": "T98G [19]", "result": 2340, "unit": "nM"}, {"measurement": "EC50", "setting": "LN-229", "result": 2200, "unit": "nM"}, {"measurement": "EC50", "setting": "LN-18", "result": 1970, "unit": "nM"}, {"measurement": "Activity", "setting": "HEK-293T [20]", "result": "Non-Toxic"}, {"measurement": "Activity", "setting": "HEK-293T [21]", "result": "Non-Toxic"}, {"measurement": "EC50 at 36 h", "setting": "[22]", "result": "> 10", "unit": "µM"}, {"measurement": "Activity", "setting": "T98G [23]", "result": "Active"}, {"measurement": "Activity", "setting": "HEK-293T [24]", "result": "Non-Toxic"}, {"measurement": "EC50", "setting": "D-247MG", "result": 1250, "unit": "nM"}, {"measurement": "EC50", "setting": "U2OS [25]", "result": "> 10", "unit": "µM"}, {"measurement": "ΔTm", "setting": "[4]", "result": 0.1, "unit": "°C"}]}
